In the NIST ThermoML archive (doi:10.1016/j.jct.2016.09.041):
± gives the expanded uncertainty stated by the source.

Conditions: for molar entropy: 101.33 kPa, Small (less than 1 g) adiabatic calorimetry

## N[C@@H](Cc1c[nH]c2ccccc12)C(=O)O [L-tryptophan]
5 K, Crystal
  molar entropy: 0.2245 ± 0.033 J/K/mol
10 K, Crystal
  molar entropy: 1.663 ± 0.25 J/K/mol
15 K, Crystal
  molar entropy: 4.49 ± 0.25 J/K/mol
20 K, Crystal
  molar entropy: 8.314 ± 0.25 J/K/mol
25 K, Crystal
  molar entropy: 12.64 ± 0.33 J/K/mol
30 K, Crystal
  molar entropy: 17.46 ± 0.5 J/K/mol
35 K, Crystal
  molar entropy: 22.45 ± 0.58 J/K/mol
40 K, Crystal
  molar entropy: 27.52 ± 0.58 J/K/mol
45 K, Crystal
  molar entropy: 32.59 ± 0.58 J/K/mol
50 K, Crystal
  molar entropy: 37.66 ± 0.58 J/K/mol
60 K, Crystal
  molar entropy: 47.73 ± 0.58 J/K/mol
70 K, Crystal
  molar entropy: 57.7 ± 0.83 J/K/mol
79.2 K, Crystal 1
  molar entropy: 66.6 ± 1.1 J/K/mol
79.2 K, Crystal
  molar entropy: 66.6 ± 1.1 J/K/mol
80 K, Crystal 1
  molar entropy: 67.26 ± 1.1 J/K/mol
90 K, Crystal 1
  molar entropy: 76.16 ± 1.2 J/K/mol
100 K, Crystal 1
  molar entropy: 84.89 ± 1.4 J/K/mol
110 K, Crystal 1
  molar entropy: 93.54 ± 1.4 J/K/mol
120 K, Crystal 1
  molar entropy: 102.02 ± 1.4 J/K/mol
130 K, Crystal 1
  molar entropy: 110.25 ± 1.4 J/K/mol
140 K, Crystal 1
  molar entropy: 118.48 ± 1.9 J/K/mol
150 K, Crystal 1
  molar entropy: 126.63 ± 1.9 J/K/mol
160 K, Crystal 1
  molar entropy: 134.61 ± 2.2 J/K/mol
170 K, Crystal 1
  molar entropy: 142.59 ± 2.2 J/K/mol
180 K, Crystal 1
  molar entropy: 150.49 ± 2.4 J/K/mol
190 K, Crystal 1
  molar entropy: 158.39 ± 2.4 J/K/mol
200 K, Crystal 1
  molar entropy: 166.21 ± 2.4 J/K/mol
210 K, Crystal 1
  molar entropy: 174.02 ± 2.7 J/K/mol
220 K, Crystal 1
  molar entropy: 181.75 ± 2.7 J/K/mol
230 K, Crystal 1
  molar entropy: 189.49 ± 2.9 J/K/mol
240 K, Crystal 1
  molar entropy: 197.22 ± 3.2 J/K/mol
250 K, Crystal 1
  molar entropy: 204.87 ± 3.2 J/K/mol
260 K, Crystal 1
  molar entropy: 212.6 ± 3.4 J/K/mol
270 K, Crystal 1
  molar entropy: 220.33 ± 3.4 J/K/mol
280 K, Crystal 1
  molar entropy: 228.07 ± 3.5 J/K/mol
290 K, Crystal 1
  molar entropy: 235.72 ± 3.7 J/K/mol
298.15 K, Crystal 1
  molar entropy: 242.03 ± 3.7 J/K/mol
300 K, Crystal 1
  molar entropy: 243.45 ± 3.7 J/K/mol
310 K, Crystal 1
  molar entropy: 251.1 ± 4 J/K/mol
320 K, Crystal 1
  molar entropy: 258.75 ± 4 J/K/mol
330 K, Crystal 1
  molar entropy: 266.31 ± 4.2 J/K/mol
340 K, Crystal 1
  molar entropy: 273.88 ± 4.2 J/K/mol
350 K, Crystal 1
  molar entropy: 281.53 ± 4.5 J/K/mol
360 K, Crystal 1
  molar entropy: 289.09 ± 4.5 J/K/mol
370 K, Crystal 1
  molar entropy: 296.66 ± 4.7 J/K/mol
Crystal 2, Adiabatic calorimetry
  Triple point temperature: 79.2 ± 0.2 K
